Values joined by “and” are separate entries in the source; they are usually repeats but may differ in a detail not shown here. Equal values may be shown once. Inconclusive results and toxic doses are left out.

In this assay the test system is L1210 leukemia ip in BDF1 mice, survival T/C. In words: NCI In Vivo Anticancer Drug Screen. Data for tumor model L1210 Leukemia (intraperitoneal) in B6D2F1 (BDF1) mice. The following applies: endpoint: mean survival time, higher = longer survival. The gist of the method: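 In this screen, tumor-bearing mice given compound are compared to those given vehicle, and their survival values are reported as a treated-to-control quotient.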

Setting [1] is: dose: 15.0 mg/kg/injection, schedule: Q01DX Z (ip), vehicle: carboxymethylcellulose (CMC).
[2] abbreviates: dose: 30.0 mg/kg/injection, schedule: Q01DX Z (ip), vehicle: carboxymethylcellulose (CMC).
The mark [3] stands for this setting: dose: 400.0 mg/kg/injection, schedule: Q01DX009 (ip), vehicle: saline.
[4] abbreviates: dose: 100.0 mg/kg/injection, schedule: Q04DX003 (ip), vehicle: Klucel (hydroxypropylcellulose) (HPC).
[5] abbreviates: dose: 200.0 mg/kg/injection, schedule: Q04DX003 (ip), vehicle: Klucel (hydroxypropylcellulose) (HPC).
Setting [6] is: dose: 400.0 mg/kg/injection, schedule: Q04DX003 (ip), vehicle: Klucel (hydroxypropylcellulose) (HPC).
Where [7] appears, read: dose: 25.0 mg/kg/injection, schedule: Q01DX009 (ip), vehicle: Klucel (hydroxypropylcellulose) (HPC).
[8] abbreviates: dose: 50.0 mg/kg/injection, schedule: Q01DX009 (ip), vehicle: Klucel (hydroxypropylcellulose) (HPC).
[9] abbreviates: dose: 100.0 mg/kg/injection, schedule: Q01DX009 (ip), vehicle: Klucel (hydroxypropylcellulose) (HPC).
Where [10] appears, read: dose: 200.0 mg/kg/injection, schedule: Q01DX009 (ip), vehicle: Klucel (hydroxypropylcellulose) (HPC).

Consider `COc1cc2c(c(OC)c1OC)-c1ccc(=O)c(N)cc1C(NC(C)=O)CC2` (stereo unspecified), for which the T/C reads like this: (dose: 1.8 mg/kg/injection, schedule: Q01DX Z (ip), vehicle: carboxymethylcellulose (CMC)) 97 % of control; (dose: 3.7 mg/kg/injection, schedule: Q01DX Z (ip), vehicle: carboxymethylcellulose (CMC)) 101 % of control; (dose: 7.5 mg/kg/injection, schedule: Q01DX Z (ip), vehicle: carboxymethylcellulose (CMC)) 105 % of control; under setting [1], 105 % of control; under setting [2], 110 % of control and 112 % of control; (dose: 60.0 mg/kg/injection, schedule: Q01DX Z (ip), vehicle: carboxymethylcellulose (CMC)) 114 % of control and 122 % of control. Further, the T/C (dose: 240.0 mg/kg/injection, schedule: Q01DX Z (ip), vehicle: carboxymethylcellulose (CMC)) is 121 % of control.
Take `O=C(O)C(Cc1ccc(O)cc1)NC(=O)C(CSC(c1ccccc1)(c1ccccc1)c1ccccc1)NC(c1ccccc1)(c1ccccc1)c1ccccc1` (stereo unspecified): the T/C is 92 % of control (dose: 50.0 mg/kg/injection, schedule: Q01DX009 (ip), vehicle: saline); 95 % of control (dose: 100.0 mg/kg/injection, schedule: Q01DX009 (ip), vehicle: saline); 100 % of control (dose: 200.0 mg/kg/injection, schedule: Q01DX009 (ip), vehicle: saline); 95 % of control under setting [3].
Take `CCCCCCC/C(=N\N=C(N)N)c1ccc(O)cc1`: the T/C is, setting by setting: under setting [1], 93 % of control; (dose: 15.0 mg/kg/injection, schedule: Q01DX Z (oral), vehicle: carboxymethylcellulose (CMC)) 117 % of control; under setting [2], 87 % of control; (dose: 30.0 mg/kg/injection, schedule: Q01DX Z (oral), vehicle: carboxymethylcellulose (CMC)) 106 % of control; (dose: 60.0 mg/kg/injection, schedule: Q01DX Z (oral), vehicle: carboxymethylcellulose (CMC)) 97 % of control and 103 % of control; (dose: 120.0 mg/kg/injection, schedule: Q01DX Z (oral), vehicle: carboxymethylcellulose (CMC)) 112 % of control and 90 % of control. For the same compound, the T/C is, setting by setting: (dose: 240.0 mg/kg/injection, schedule: Q01DX Z (oral), vehicle: carboxymethylcellulose (CMC)) 94 % of control and 95 % of control; (dose: 480.0 mg/kg/injection, schedule: Q01DX Z (oral), vehicle: carboxymethylcellulose (CMC)) 88 % of control and 90 % of control.
`c1cc2ccc3ccc[n+]4c3c2[n+](c1)CC4`: under “dose: 75.0 mg/kg/injection, schedule: Q01DX001 (ip), vehicle: saline”, the T/C is 103 % of control.
As to `CCCCCCCCCCCC(=O)N(C)C`, the T/C was 109 % of control under setting [4], 111 % of control under setting [5] and 109 % of control under setting [6].
`c1cncc(-c2nnc(-c3cccnc3)o2)c1`: the T/C reads like this: (dose: 12.5 mg/kg/injection, schedule: Q04DX002 (ip), vehicle: saline with Tween-80) 124 % of control; (dose: 50.0 mg/kg/injection, schedule: Q04DX002 (ip), vehicle: saline with Tween-80) 91 % of control.
Turning to `O=CC1=C(Cl)c2ccccc2SC1`, the T/C (dose: 100.0 mg/kg/injection, schedule: Q01DX001 (ip), vehicle: other) is 93 % of control and the T/C (dose: 200.0 mg/kg/injection, schedule: Q01DX001 (ip), vehicle: other) was 98 % of control.
Consider `C/C(=N\N=C(/C)c1ccc(N)cc1)c1ccc(N)cc1`, for which the T/C was 90 % of control (dose: 100.0 mg/kg/injection, schedule: Q01DX001 (ip), vehicle: saline) and 96 % of control (dose: 400.0 mg/kg/injection, schedule: Q01DX001 (ip), vehicle: saline).
As for `OCC1OC(CO)(OC2CC3C(O)CC(O)CC3OC2c2cc(O)c(O)c(O)c2)C(O)C1O` (stereo unspecified), the T/C is, setting by setting: (dose: 100.0 mg/kg/injection, schedule: Q01DX001 (ip), vehicle: carboxymethylcellulose (CMC)) 103 % of control; (dose: 200.0 mg/kg/injection, schedule: Q01DX001 (ip), vehicle: carboxymethylcellulose (CMC)) 93 % of control; (dose: 400.0 mg/kg/injection, schedule: Q01DX001 (ip), vehicle: carboxymethylcellulose (CMC)) 92 % of control.
As for `Cc1cc(C(=O)O)c2cc(Br)ccc2n1`, the T/C is 100 % of control under setting [7], 98 % of control under setting [8] and 96 % of control under setting [9].
As to `Cc1ccc(C)c(NC(=O)Oc2ccc(C(=O)OCc3ccccc3)cc2)c1`, the T/C is, setting by setting: under setting [7], 100 % of control; under setting [8], 88 % of control; under setting [9], 93 % of control and 104 % of control; under setting [4], 107 % of control; under setting [10], 95 % of control; under setting [5], 98 % of control. In addition, under setting [6], the T/C is 101 % of control.
As to `C=C(Nc1ccc2ccccc2c1)S(=O)(=O)O`, the T/C by setting is: under setting [9], 94 % of control; under setting [10], 103 % of control; (dose: 400.0 mg/kg/injection, schedule: Q01DX009 (ip), vehicle: Klucel (hydroxypropylcellulose) (HPC)) 96 % of control.
With `Cc1c(O)ccc(C(=O)CCl)c1O`, the T/C (dose: 12.0 mg/kg/injection, schedule: Q01DX009 (ip), vehicle: saline with Tween-80) is 100 % of control; the T/C (dose: 25.0 mg/kg/injection, schedule: Q01DX009 (ip), vehicle: saline with Tween-80) is 102 % of control and 107 % of control; the T/C under setting [4] is 106 % of control; the T/C under setting [5] was 102 % of control.
Consider `CC(C)NCCNc1ccnc2cc(Cl)ccc12`, for which the T/C is 94 % of control (dose: 10.0 mg/kg/injection, schedule: Q01DX001 (ip), vehicle: saline); 98 % of control (dose: 20.0 mg/kg/injection, schedule: Q01DX001 (ip), vehicle: saline); 96 % of control (dose: 40.0 mg/kg/injection, schedule: Q01DX001 (ip), vehicle: saline).
Take `Cn1c(=O)c2c(ncn2C)n(C)c1=O` (tested in a mixture with another compound): the T/C by setting is: (dose: 100.0 mg/kg/injection, schedule: Q04DX003 (ip), vehicle: saline with Tween-80) 98 % of control; (dose: 200.0 mg/kg/injection, schedule: Q04DX003 (ip), vehicle: saline with Tween-80) 101 % of control; (dose: 400.0 mg/kg/injection, schedule: Q04DX003 (ip), vehicle: saline with Tween-80) 114 % of control.
With `CCOC(=O)CCC(NC(=O)N(CCCl)CCCl)C(=O)OCC` (stereo unspecified), the T/C is 90 % of control (dose: 250.0 mg/kg/injection, schedule: Q01DX Z (ip), vehicle: water) and 183 % of control under setting [3].
Consider `CCOC(=O)C1(C(=O)OCC)COC(=O)C1`, for which the T/C was 94 % of control (dose: 50.0 mg/kg/injection, schedule: Q01DX009 (ip), vehicle: acetone); 97 % of control (dose: 100.0 mg/kg/injection, schedule: Q01DX009 (ip), vehicle: acetone); 107 % of control (dose: 100.0 mg/kg/injection, schedule: Q04DX003 (ip), vehicle: acetone); 100 % of control (dose: 200.0 mg/kg/injection, schedule: Q01DX009 (ip), vehicle: acetone); 96 % of control (dose: 200.0 mg/kg/injection, schedule: Q04DX003 (ip), vehicle: acetone); 98 % of control (dose: 400.0 mg/kg/injection, schedule: Q04DX003 (ip), vehicle: acetone).
On to `Nc1[nH]c(=S)[nH]c(=O)c1N`, for which the T/C reads like this: (dose: 12.0 mg/kg/injection, schedule: Q01DX009 (ip), vehicle: other) 102 % of control; (dose: 12.0 mg/kg/injection, schedule: Q04DX003 (ip), vehicle: saline) 97 % of control; (dose: 25.0 mg/kg/injection, schedule: Q01DX009 (ip), vehicle: other) 102 % of control; (dose: 25.0 mg/kg/injection, schedule: Q04DX003 (ip), vehicle: saline) 104 % of control; (dose: 50.0 mg/kg/injection, schedule: Q01DX009 (ip), vehicle: other) 105 % of control; (dose: 50.0 mg/kg/injection, schedule: Q04DX003 (ip), vehicle: saline) 118 % of control. Also, the T/C runs as follows: (dose: 125.0 mg/kg/injection, schedule: Q01DX Z (ip), vehicle: methylcellulose (MC)) 106 % of control; (dose: 250.0 mg/kg/injection, schedule: Q01DX Z (ip), vehicle: methylcellulose (MC)) 117 % of control.
`CCC1(N)COC(c2ccccc2)OC1` (stereo unspecified): the T/C reads like this: under setting [8], 109 % of control; under setting [9], 88 % of control.
For `CC1(N(O)C(=O)NCCCl)CCCCC1`, the T/C is, setting by setting: (dose: 100.0 mg/kg/injection, schedule: Q01DX001 (ip), vehicle: saline with Tween-80) 109 % of control; (dose: 200.0 mg/kg/injection, schedule: Q01DX001 (ip), vehicle: saline with Tween-80) 102 % of control; (dose: 400.0 mg/kg/injection, schedule: Q01DX001 (ip), vehicle: saline with Tween-80) 93 % of control.
